What was measured:
[1] = system: COLO 205 cells; assay: MTS cytotoxicity test with COLO 205 cells; assay type: cell-based, human; conditions: 3 days
Procedure: The assay, which is sold in kit form by Promega (Madison, Wis.; CellTiter 96 AQueous Non-Radioactive Cell Proliferation Assay), is based on the conversion by viable cells, but not by dead cells, of the tetrazolium salt, MTS (3-(4,5-dimethylthiazol-2-yl)-5-(3-carboxymethoxyphenyl)-2-(4-sulphophenyl)-2H-tetrazolium, inner salt), into a water-soluble colored formazan which is detected by spectrophotometry. Compounds are tested at nine concentrations, in order to determine IC50 values. For the test procedure, cells are harvested by trypsinization (or, in the case of non-adherent cells, by simple resuspension), washed, counted and distributed to wells of 96-well flat-bottom microtiter plates at 1000 cells per well in 200 μL of medium. In addition, one row of wells on a separate plate received cells as above (“time 0” plate). All plates are incubated at 37° in humidified 5% CO2 in air for about 24 hr.
On day 2, compounds for test are diluted and added to wells. Compounds are dissolved in DMSO at 10 mg/mL. For each compound, nine serial 2-fold dilutions are prepared in DMSO. Ten μL of each dilution in DMSO is transferred to 100 μL of medium, mixed well, and then 5 μL of this dilution is transferred in quadruplicate to wells containing cells. The final high concentration of each compound is typically 5 μM. Plates are returned to the incubator for three days. At the time of drug addition to the experimental plates, the MTS assay is run on the “time 0” plate. This produced the “time 0 MTS value” which is related to the number of viable cells per well at the time of drug addition.
After three days of culture with test compounds (day 5 overall), the MTS assay is done on all wells of the experimental plates. The absorbance values of the quadruplicate sample wells are averaged and divided by the average of the “time 0” values. The average of control wells without drug, divided by the average “time 0” value, gave the maximal relative increase in MTS color yield due to cell growth during the final three days of culture. The average of control wells with high drug concentration, divided by the “time 0” value, gave the minimal relative color yield for cells that are completely killed. The nine values for each compound are plotted against concentration, and the concentration that produced a relative color yield half way between the maximum and minimum is taken as the IC50 value.
COLO 205 is a human colon carcinoma cell line that is used for comparative testing of the examples of this invention and several reference compounds. This line is sensitive to paclitaxel and vincristine.

[2] = system: DLD1 Human Colon Carcinoma; assay: Human tumor xenograft test, DLD1; assay type: in vivo; conditions: DLD1, 15 mg/kg intravenously on days 1, 5, 9, and 13
Procedure: (§1) The ability of compounds of this invention to inhibit tumor growth in animals is studied in the athymic mouse xenograft standard pharmacological test. Female nu/nu mice in an outbred albino background are obtained from Charles River Laboratories (Wilmington, Mass.). Animals are injected subcutaneously on the flank with the desired tumor cell suspension. Several days later, mice with tumors of approximately 150 mm^3 are selected from those injected (staged) and randomly distributed into groups of 5-10. The day of staging is called day 0. Compounds of the invention, usually formulated in saline (exceptions are noted in tables), are administered to animals by intravenous injection or oral gavage on various schedules starting on day 0 or 1, as noted in the tables. The control group in each experiment is dosed with vehicle on the same schedule. Tumor size is measured every 3-7 days with calipers in two orthogonal dimensions, and tumor volume is calculated from the formula volume=[(length×width^2)/2].
(§2) Tumor/Control (T/C) is obtained by dividing the mean tumor volume of the treated group by the mean tumor volume of the control group on each measurement day. A treatment dose is defined as active if it produced a statistically significant T/C of 0.50 or less. A p value≦0.05, determined by one-side Student's t-test, is required for statistical significance. A treatment dose is defined as toxic if more than 10% of the animals died from a compound-related toxicity.

[3] = system: A549 Human Non-Small Cell Lung Carcinoma; assay: Human tumor xenograft test, A549; assay type: in vivo, athymic mice; conditions: A549, intravenously q4dX8 at 40 mg/kg
Procedure: as §1, §2

SMILES	IC50 ([1]; Homo sapiens, COLO 205, 72 h) [nM]	other results
C[C@H](Nc1c(-c2c(F)cc(OCCCN(C)C)cc2F)c(Cl)nc2ncnn12)C(F)(F)F [Example 1, 5-Chloro-6-{4-[3-(dimethylamino)propoxy]-2,6-difluorophenyl}-N-[(1S)-2,2,2-trifluoro-1-methylethyl][1,2,4]triazolo[1,5-a]pyrimidin-7-amine]		IC50 [1]: 41 nM; tumor growth inhibition (activity call) [2]: active
CN(C)CCCOc1cc(F)c(-c2c(Cl)nc3ncnn3c2NCC(F)(F)F)c(F)c1 [Example 4, 5-Chloro-6-{4-[3-(dimethylamino)propoxy]-2,6-difluorophenyl}-N-(2,2,2-trifluoroethyl)[1,2,4]triazolo[1,5-a]pyrimidin-7-amine]		tumor growth inhibition (activity call) [3]: inhibited the growth
C[C@H](Nc1c(-c2c(F)ccc(OCCCCN(C)C)c2F)c(Cl)nc2ncnn12)C(F)(F)F [Example 29, 5-Chloro-6-{3-[4-(dimethylamino)butoxy]-2,6-difluorophenyl}-N-[(1S)-2,2,2-trifluoro-1-methylethyl][1,2,4]triazolo[1,5-a]pyrimidin-7-amine]	433	
CN(C)CCCOc1cc(F)c(-c2c(Cl)nc3ncnn3c2C2CCCCCC2)c(F)c1 [Example 31, 3-[4-(5-Chloro-7-cycloheptyl[1,2,4]triazolo[1,5-a]pyrimidin-6-yl)-3,5-difluorophenoxy]-N,N-dimethylpropan-1-amine]	19	
CNCCCOc1cc(F)c(-c2c(Cl)nc3ncnn3c2N[C@H](C)C(F)(F)F)c(F)c1 [Example 33, 5-Chloro-6-{2,6-difluoro-4-[3-(methylamino)propoxy]phenyl}-N-[(1R)-2,2,2-trifluoro-1-methylethyl][1,2,4]triazolo[1,5-a]pyrimidin-7-amine]	126	

From patent US7507739B2, “6-[(substituted)phenyl]triazolopyrimidines as anticancer agents” (Wyeth, priority 2003, dated 2009)
